In general, melting point refers to the temperature of the solid-liquid transition.

pIC50: −log10 of the molar value. Where a name gives a salt, the structure may show the parent alone. Read-outs that look alike come from different tables or passages of the source.

This passage reports IC50 and melting point results from patent US7842711B2, “Indazolecarboxamide derivatives for the treatment and prevention of malaria” (Sanofi-Aventis, priority 2004, dated 2010).

Series [1] has as its system P. falciparum strain FcM29 (highly resistant to chloroquine). In words: antimalarial activity assay, radioactive micromethod of Desjardins (tritiated hypoxanthine incorporation), strain FcM29. Format: cell-based. The settings on record: Plasmodium falciparum, Erythrocyte, read-out: IC50 (concentration of the compound required to inhibit the parasite growth by 50%). Here is the method:
Two strains of P. falciparum are used, the origin of which is Colombia (FcB1, strain moderately resistant to chloroquine) and Cameroon (FcM29, strain highly resistant to chloroquine). These strains of P. falciparum are cultured continuously in human red blood cells according to the method of Trager and Jensen (W. Trager, J. Jensen, Science, 1976, 193, 673-675): the parasites are maintained in human red blood cells (O±), diluted to 2% parasiteamia in an RPMI 1640 medium supplemented with 25 mM of Hepes, 24 mM of NaHCO3 and 2 mM of L-glutamine, and supplemented with 5% of human serum of all groups. The parasites are incubated at 37° C. in a humid atmosphere and at 5% CO2.
The antimalarial activity assays are carried out according to the radioactive micromethod of Desjardins (R. E. Desjardins, C. J. Canfield, J. D. Haynes, J. D. Chulay, Antimicrob. Agents Chemother., 1979, 16, 710-718). Each molecule is tested in triplicate. The assays are carried out in 96-well microplates. The strains of P. falciparum are cultured in solutions of RPMI 1640 supplemented with 5% of human serum with a 2% haematocrit and a 1.5% parasitaemia. For each assay, the parasites are incubated with decreasing concentrations of compounds of formula (I) for 48 h at 37° C. in a humid atmosphere and at 5% CO2.
The first dilution of the test compound is prepared at 1 mg/ml in dimethyl sulphoxide. The dilution range for the successive daughter solutions is also prepared in dimethyl sulphoxide. Each daughter dilution is subsequently diluted to 1/50 in RPMI 1640 supplemented with 5% of human serum, all the dilutions being prepared at 37° C. These dilutions are then added to the parasites in culture in the microplates. After addition of the test compound, the parasites are in culture in RPMI 1640 containing 5% of human serum and 1% of dimethyl sulphoxide. The parasite growth is measured by the incorporation of tritiated hypoxanthine (added 24 h after the beginning of exposure to the test compound) compared with incorporation in the absence of the test compound (taken as 100%). The IC50 values (concentration of the compound required to inhibit the parasite growth by 50%) are determined by plotting the percentage inhibition as a function of the log of the dose by means of the GraphPad Prism 4® processing software (GraphPad software, Inc., 5755 Oberlin Drive, # 110, San Diego, Calif. 92121, USA).

Setting [2] is: strain FcM29, 48 h incubation in human red blood cells, tritiated hypoxanthine incorporation.

On to `CCNCc1cccc(NC(=O)c2n[nH]c3ccc(-c4cncc5[nH]ccc45)cc23)c1` [compound 21, N-{3-[(ethylamino)methyl]phenyl}-5-(1H-pyrrolo[2,3-c]pyridin-4-yl)-1H-indazole-3-carboxamide], for which the melting point is above 250 °C. The pIC50 in series [1] (setting [2]) is 6.39. The like results for `O=C(Nc1ccncc1)c1n[nH]c2ccc(-c3cncc4ccccc34)cc12` [Compound No. 3, N-(Pyridin-4-yl)-5-isoquinolin-4-yl-1H-indazole-3-carboxamide] were, in that order, above 250 °C and 6.22. With `CCNCc1cccc(NC(=O)c2n[nH]c3ccc(-c4cncc5ccccc45)cc23)c1` [Compound No. 14, N-{3-[(Ethylamino)methyl]phenyl}-5-isoquinolin-4-yl-1H-indazole-3-carboxamide dihydrochloride], in series [1] (48 h), the pIC50 is 6.57. Turning to `CCNCc1cccc(NC(=O)c2n[nH]c3ccc(-c4cncc5ccccc45)cc23)c1` (as salt: HCl) [Compound No. 14, N-{3-[(Ethylamino)methyl]phenyl}-5-isoquinolin-4-yl-1H-indazole-3-carboxamide dihydrochloride], the melting point is above 135 °C. `O=C(Nc1ccncc1)c1n[nH]c2ccc(-c3cn[nH]c3)cc12` [Compound No. 11, 5-(1H-Pyrazol-4-yl)-N-(pyridin-4-yl)-1H-indazole-3-carboxamide] yielded a melting point above 250 °C. In addition, the pIC50 in series [1] (setting [2]) is 6.10. For `O=C(Nc1ccncc1)c1n[nH]c2ccc(-c3cncc4[nH]ccc34)cc12` [Compound No. 10, N-(Pyridin-4-yl)-5-(1H-pyrrolo[2,3-c]pyridin-4-yl)-1H-indazole-3-carboxamide] the same measures were above 250 °C and 6.89. For `O=C(Nc1ccncc1)c1n[nH]c2ccc(-c3ccc(Cl)nc3)cc12` [compound 12, 5-(6-chloropyridin-3-yl)-N-pyridin-4-yl-1H-indazole-3-carboxamide] the same measures were above 250 °C and 6.10.
